Measurements reported in article PMC8486872, “A rational blueprint for the design of chemically-controlled protein switches” (Nature Communications, 2021).
Several values for one entry are separate records, joined by “and”; a condition that tells them apart may be missing. Equal entries are not always repeated.

Test system: SEAP and Luciferase expression in HEK293T cells
Experiment: SIMO designer cells (AIR-1/2-GEMS + CDH-1/2-TF)
Assay type: cell-based
Text: Fig. 5 Orthogonal chemical switches enable implementation of multi-input multi-output control modes in mammalian cells. a Scheme of multi-inputs multi-outputs (MIMO) designer cells where two drugs control two different outputs. b, c Cells were co-transfected with AIR-1/2-GEMS and CDH-3-TF regulate SEAP and Luciferase expression, respectively. […] AIR-1/2-GEMS coupled with SEAP expression circuits were co-transfected with CDH-1/2-TF circuits which control the Luciferase production. Respective drug concentrations ranged from 0.001 nM to 1 µM. All values presented are mean ± s.d. of three replicates and curves were fitted by four-parameters nonlinear regression. b, c, e, f, h, i Source data are available in the source data file.
Finally, we engineered SIMO cells (Fig. 5g) using two designed switches that produce ON and OFF responses upon exposure to the same drug. We transfected cells with combinations of AIR-GEMS and CDH-TFs which controlled the expression of the reporter proteins SEAP and Luciferase, respectively. […] Therefore, computational design expanded the repertoire of protein switches controlled by the same compounds that can be used to simultaneous turn ON and OFF synergistic outputs. […]
AIR-1-GEMS coupled with SEAP expression circuits (i) and CDH-1-TF circuits which control the Luciferase production (j). j-k) Quantification of SEAP and Luciferase activities under Drug-2. AIR-2-GEMS coupled with SEAP expression circuits (k) and CDH-2-TF circuits which control the Luciferase production (l). b-k) Each data point represents the mean of n = 3 biological replicates, and the dose-dependent curve were fitted using four-parameter nonlinear regression.

[1] = Fig S13i, CDH-1-TF control Luciferase expression only, Drug-1 0.01 nM
[2] = Fig S13i, CDH-1-TF control Luciferase expression only, Drug-1 10 nM
[3] = Fig S13i, CDH-1-TF control Luciferase expression only, Drug-1 31.6 nM
[4] = Fig S13i, CDH-1-TF control Luciferase expression only, Drug-1 100 nM
[5] = Fig S13i, CDH-1-TF control Luciferase expression only, Drug-1 316 nM
[6] = Fig S13h, AIR-1-GEMS control SEAP expression only, Drug-1 0.01 nM
[7] = Fig S13h, AIR-1-GEMS control SEAP expression only, Drug-1 0.1 nM
[8] = Fig S13h, AIR-1-GEMS control SEAP expression only, Drug-1 1 nM

Question: Which results are given for `CN(C)CC#Cc1ccc(OCCCc2sc(N3CCc4cccc(C(=O)Nc5nc6ccccc6s5)c4C3)nc2C(=O)O)c(F)c1` [Drug-1, A-1155463]?
Answer: SEAP and Luciferase outputs in SIMO cells (0.001 nM to 1 µM): simultaneously activated SEAP production and suppressed the expression of Luciferase; SEAP (Fig5h, turn ON via AIR-1-GEMS, 0.001 nM): 19.8743 U/L and 19.5134 U/L and 15.1383 U/L; SEAP (Fig5h, turn ON via AIR-1-GEMS, 0.005 nM): 19.2907 U/L and 17.6338 U/L and 18.8337 U/L; SEAP (Fig5h, turn ON via AIR-1-GEMS, 0.01 nM): 18.6271 U/L and 21.8407 U/L and 37.1349 U/L; SEAP (Fig5h, turn ON via AIR-1-GEMS, 0.05 nM): 37.9776 U/L and 52.7802 U/L and 54.2278 U/L; SEAP (Fig5h, turn ON via AIR-1-GEMS, 0.1 nM): 39.7647 U/L and 50.8999 U/L and 76.4896 U/L; SEAP (Fig5h, turn ON via AIR-1-GEMS, 0.5 nM): 46.7816 U/L and 46.7958 U/L and 68.9342 U/L; SEAP (Fig5h, turn ON via AIR-1-GEMS, 1 nM): 36.1123 U/L and 44.1109 U/L and 47.7004 U/L; SEAP (Fig5h, turn ON via AIR-1-GEMS, 5 nM): 163.102 U/L and 218.766 U/L and 249.722 U/L; SEAP (Fig5h, turn ON via AIR-1-GEMS, 10 nM): 315.129 U/L and 324.74 U/L and 353.471 U/L; SEAP (Fig5h, turn ON via AIR-1-GEMS, 50 nM): 364.997 U/L and 306.053 U/L and 339.025 U/L; SEAP (Fig5h, turn ON via AIR-1-GEMS, 100 nM): 443.801 U/L and 453.931 U/L and 405.497 U/L; SEAP (Fig5h, turn ON via AIR-1-GEMS, 500 nM): 488.063 U/L and 432.803 U/L and 436.708 U/L; SEAP (Fig5h, turn ON via AIR-1-GEMS, 1000 nM): 411.613 U/L and 466.826 U/L and 364.664 U/L; Luciferase (Fig5h, via CDH-1-TF, 0.005 nM): 13170 and 13560 and 13671; Luciferase (Fig5h, via CDH-1-TF, 0.01 nM): 14134 and 13430 and 12324; Luciferase (Fig5h, via CDH-1-TF, 0.05 nM): 14625 and 13685 and 11174; Luciferase (Fig5h, via CDH-1-TF, 0.5 nM): 10957 and 11915 and 9777; Luciferase (Fig5h, via CDH-1-TF, 1 nM): 11394 and 11027 and 9891; Luciferase (Fig5h, via CDH-1-TF, 5 nM): 9387 and 10202 and 8501; Luciferase (Fig5h, via CDH-1-TF, 10 nM): 9897 and 9353 and 8698; Luciferase (Fig5h, via CDH-1-TF, 50 nM): 8493 and 5450 and 4767; Luciferase (Fig5h, via CDH-1-TF, 100 nM): 6159 and 4105 and 3304; Luciferase (Fig5h, via CDH-1-TF, 500 nM): 6685 and 4541 and 3781; Luciferase [1]: 4.631 RLU and 4.974 RLU and 6.289 RLU; SEAP [1]: 47563 U/L and 58731 U/L and 59991 U/L; SEAP (Fig S13i, CDH-1-TF control Luciferase expression only, Drug-1 0.1 nM): 53899 U/L and 50028 U/L and 61321 U/L; SEAP (Fig S13i, CDH-1-TF control Luciferase expression only, Drug-1 1 nM): 51520 U/L and 52067 U/L and 58888 U/L; SEAP (Fig S13i, CDH-1-TF control Luciferase expression only, Drug-1 3.16 nM): 43654 U/L and 44498 U/L and 55865 U/L; Luciferase [2]: 5.35 RLU and 3.637 RLU and 4.7853 RLU; SEAP [2]: 47243 U/L and 36047 U/L and 43911 U/L; Luciferase [3]: 10.558 RLU and 9.125 RLU and 9.89 RLU; SEAP [3]: 41739 U/L and 35234 U/L and 36053 U/L; Luciferase [4]: 6.8735 RLU and 7.9639 RLU and 7.26 RLU; SEAP [4]: 32885 U/L and 32749 U/L and 33680 U/L; Luciferase [5]: 7.503 RLU and 9.5502 RLU and 5.763 RLU; SEAP [5]: 36324 U/L and 29686 U/L and 32588 U/L; SEAP (Fig S13i, CDH-1-TF control Luciferase expression only, Drug-1 1000 nM): 22215 U/L and 22717 U/L and 21612 U/L; Luciferase [6]: 7.197 RLU and 7.213 RLU and 7.2493 RLU; SEAP [6]: 251 U/L and 231 U/L and 325 U/L; Luciferase [7]: 7.338 RLU and 6.8 RLU and 5.088 RLU; SEAP [7]: 201 U/L and 203 U/L and 381 U/L; Luciferase [8]: 9.026 RLU and 10.0168 RLU; SEAP [8]: 267 U/L and 249 U/L and 441 U/L; SEAP (Fig S13h, AIR-1-GEMS control SEAP expression only, Drug-1 3.16 nM): 363 U/L and 301 U/L and 409 U/L; SEAP (Fig S13h, AIR-1-GEMS control SEAP expression only, Drug-1 10 nM): 551 U/L and 601 U/L; SEAP (Fig S13h, AIR-1-GEMS control SEAP expression only, Drug-1 31.6 nM): 639 U/L and 579 U/L and 471 U/L; SEAP (Fig S13h, AIR-1-GEMS control SEAP expression only, Drug-1 100 nM): 421 U/L and 435 U/L and 441 U/L; Luciferase (Fig S13h, AIR-1-GEMS control SEAP expression only, Drug-1 316 nM): 232.378 RLU and 215.546 RLU and 184.304 RLU
